Data: the supplement of paper PMC10307832

Columns and labels:
Test in all cases: relative viability (nuclei count vs DMSO), 5 days (fraction); higher = more cells survive
VE-821 + Olaparib = compound: CS(=O)(=O)c1ccc(-c2cnc(N)c(C(=O)Nc3ccccc3)n2)cc1 [VE-821] + O=C(c1cc(Cc2n[nH]c(=O)c3ccccc23)ccc1F)N1CCN(C(=O)C2CC2)CC1 [Olaparib] (partner 8 µM)
Method in brief: (§1)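 Cells from lung cancer lines were seeded into 1536-well plates and, one day later, dosed by pin tool. Treatments were either a single drug or a fixed dose of an anchor drug with five library-drug doses (not always all listed) in √10 steps. After 5 days, nuclei were stained in a one-step fixation (final 0.05% Triton X-100, 1% formaldehyde, 1 ug/ml Hoechst) and counted on 4× images, and relative viability is the treated-to-vehicle nuclei ratio, as the median of duplicate plates.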

Vismodegib + Linsitinib = compound: CS(=O)(=O)c1ccc(C(=O)Nc2ccc(Cl)c(-c3ccccn3)c2)c(Cl)c1 [Vismodegib] + C[C@]1(O)C[C@@H](c2nc(-c3ccc4ccc(-c5ccccc5)nc4c3)c3c(N)nccn32)C1 [Linsitinib] (partner 1 µM)
Method in brief: as §1

VE-821 + Tozasertib = compound: CS(=O)(=O)c1ccc(-c2cnc(N)c(C(=O)Nc3ccccc3)n2)cc1 [VE-821] + Cc1cc(Nc2cc(N3CCN(C)CC3)nc(Sc3ccc(NC(=O)C4CC4)cc3)n2)n[nH]1 [Tozasertib] (partner 0.1 µM)
Method in brief: as §1

Vismodegib + Phenformin = compound: CS(=O)(=O)c1ccc(C(=O)Nc2ccc(Cl)c(-c3ccccn3)c2)c(Cl)c1 [Vismodegib] + N=C(N)NC(=N)NCCc1ccccc1 [Phenformin] (partner 250 µM)
Method in brief: as §1

Row | Cell Line | relative viability (VE-821 + Olaparib; first compound 0.08 µM) | relative viability (VE-821 + Olaparib; first compound 0.253 µM) | relative viability (VE-821 + Olaparib; first compound 0.8 µM) | relative viability (VE-821 + Olaparib; first compound 2.53 µM) | relative viability (VE-821 + Olaparib; first compound 8 µM) | relative viability (Vismodegib + Linsitinib; first compound 0.08 µM) | relative viability (Vismodegib + Linsitinib; first compound 0.253 µM) | relative viability (Vismodegib + Linsitinib; first compound 0.8 µM) | relative viability (Vismodegib + Linsitinib; first compound 2.53 µM) | relative viability (Vismodegib + Linsitinib; first compound 8 µM) | relative viability (VE-821 + Tozasertib; first compound 0.08 µM) | relative viability (VE-821 + Tozasertib; first compound 0.253 µM) | relative viability (VE-821 + Tozasertib; first compound 0.8 µM) | relative viability (VE-821 + Tozasertib; first compound 2.53 µM) | relative viability (VE-821 + Tozasertib; first compound 8 µM) | relative viability (Vismodegib + Phenformin; first compound 0.08 µM) | relative viability (Vismodegib + Phenformin; first compound 0.253 µM) | relative viability (Vismodegib + Phenformin; first compound 0.8 µM) | relative viability (Vismodegib + Phenformin; first compound 2.53 µM) | relative viability (Vismodegib + Phenformin; first compound 8 µM)
1 | EBC-1 | 0.75 | 0.774 | 0.74 | 0.562 | 0.416 | 0.871 | 0.901 | 0.981 | 0.778 | 0.883 |  |  |  |  |  |  |  |  |  | 
2 | NCI-H1648 | 1.14 |  | 0.909 | 0.922 | 0.468 |  |  |  |  |  | 0.415 | 0.608 | 0.518 | 0.61 | 0.345 |  |  |  |  | 
3 | NCI-H1623 |  |  |  |  |  |  |  |  |  |  | 0.481 | 0.404 | 0.398 | 0.463 | 0.364 | 0.553 | 0.577 | 0.661 | 0.536 | 0.578
4 | NCI-H661 | 0.766 | 0.801 | 0.671 | 0.708 | 0.687 | 0.5 | 0.497 | 0.575 | 0.522 | 0.579 | 0.351 | 0.354 | 0.336 | 0.343 | 0.336 | 0.31 | 0.264 | 0.3 | 0.259 | 0.291
5 | NCI-H596 | 0.701 | 0.714 | 0.545 | 0.555 | 0.527 | 0.976 | 1.07 | 1.1 | 1.01 | 1.15 | 0.916 | 0.82 | 0.798 | 0.954 | 0.774 | 0.71 | 0.737 | 0.748 | 0.769 | 0.767
6 | IA-LM | 0.852 | 0.734 | 0.832 | 0.801 | 0.36 | 0.629 | 0.493 | 0.68 | 0.579 | 0.63 |  |  |  |  |  |  |  |  |  | 
7 | LC-2-ad | 0.714 | 0.709 | 0.725 | 0.592 | 0.519 | 0.824 | 0.794 | 0.849 | 0.82 | 0.828 | 0.427 | 0.597 | 0.504 | 0.565 | 0.426 | 0.626 | 0.583 | 0.561 | 0.618 | 0.494
8 | Calu-6 | 0.626 | 0.597 | 0.566 | 0.386 | 0.226 | 1 | 0.9 | 0.952 | 0.904 | 1.02 |  |  |  |  |  |  |  |  |  | 
9 | NCI-H2126 | 1.01 | 0.907 | 0.969 | 0.927 | 0.682 | 0.667 | 0.711 | 0.638 | 0.762 | 0.677 | 0.911 | 0.911 | 0.671 | 0.703 | 0.518 | 0.529 | 0.517 | 0.482 | 0.493 | 0.506
10 | NCI-H647 | 0.504 | 0.546 | 0.413 | 0.184 | 0.101 | 1.16 | 1.21 | 1.19 | 0.911 | 1.34 | 0.372 | 0.26 | 0.261 | 0.238 | 0.164 | 0.439 | 0.491 | 0.509 | 0.507 | 0.433
11 | NCI-H322M | 0.783 | 0.842 | 0.712 | 0.653 | 0.458 | 0.771 | 1.01 | 0.975 | 0.958 | 0.924 | 0.542 | 0.457 | 0.451 | 0.434 | 0.297 | 0.798 | 0.771 | 0.783 | 0.729 | 0.756
12 | NCI-H358 | 0.69 | 0.622 | 0.698 | 0.697 | 0.665 | 0.777 | 0.667 | 0.712 | 0.817 | 0.765 | 0.12 | 0.105 | 0.0999 | 0.0895 | 0.0895 | 0.345 | 0.418 | 0.359 | 0.329 | 0.292
13 | NCI-H2342 | 0.474 | 0.469 | 0.379 | 0.521 | 0.431 |  |  |  |  |  | 0.434 | 0.489 | 0.45 | 0.415 | 0.365 | 0.632 | 0.612 | 0.581 | 0.475 | 0.529
14 | ChaGo-K-1 | 0.449 | 0.396 | 0.36 | 0.345 | 0.283 |  |  |  |  |  | 0.219 | 0.248 | 0.219 | 0.201 | 0.22 | 0.523 | 0.448 | 0.47 | 0.459 | 0.452
15 | NCI-H1299 | 1.04 | 1.01 | 1.07 | 0.896 | 0.527 | 0.979 | 0.952 | 0.994 | 0.929 | 0.991 |  |  |  |  |  |  |  |  |  | 
16 | NCI-H1703 | 0.417 | 0.506 | 0.416 | 0.462 | 0.437 | 0.928 | 0.77 | 0.928 | 0.618 | 1.19 |  |  |  |  |  |  |  |  |  | 
17 | NCI-H1792 | 0.632 | 0.507 | 0.364 | 0.417 | 0.201 | 0.532 | 0.558 | 0.409 | 0.572 | 0.503 |  |  |  |  |  |  | 0.318 | 0.254 |  | 0.41
18 | NCI-H522 | 0.627 | 0.698 | 0.645 | 0.657 | 0.594 |  |  |  |  |  | 0.633 | 0.63 | 0.537 | 0.453 | 0.575 | 0.643 | 0.618 | 0.673 | 0.657 | 0.632
19 | NCI-H2170 | 0.656 | 0.487 | 0.395 | 0.276 | 0.21 |  |  |  |  |  | 0.744 | 0.727 | 0.662 | 0.794 | 0.477 | 0.416 | 0.409 | 0.444 | 0.433 | 0.39
20 | NCI-H1650 | 0.686 | 0.83 | 0.542 | 0.796 | 0.429 |  |  |  |  |  | 0.457 | 0.416 | 0.278 | 0.299 | 0.208 | 0.387 | 0.414 | 0.479 | 0.415 | 0.406
21 | SW 900 | 0.936 | 0.941 | 0.768 | 0.786 | 0.606 |  |  |  |  |  | 0.604 | 0.493 | 0.38 | 0.333 | 0.248 | 0.615 | 0.612 | 0.718 | 0.744 | 0.676
